Measurements published in patent US12139520B2 (priority 2020, dated 2024).
Bridge positions count the residues as written; N and C are the ends. Square brackets hold non-standard residues; d marks the D form. Peptide text beside a SMILES is read from it. Hyp = O=C(O)[C@@H]1C[C@@H](O)CN1

How the values were obtained:
hAMY3 receptor = target: T1, hAMY3 receptor (Homo sapiens, UniProt O60896+P30988); test: cAMP assay for in vitro receptor activation, hAMY3-R; assay type: cell-based; conditions: cAMP assay, hAMY3 receptor; read-out: hAMY3R EC50
T1 sequence (P30988 25-474): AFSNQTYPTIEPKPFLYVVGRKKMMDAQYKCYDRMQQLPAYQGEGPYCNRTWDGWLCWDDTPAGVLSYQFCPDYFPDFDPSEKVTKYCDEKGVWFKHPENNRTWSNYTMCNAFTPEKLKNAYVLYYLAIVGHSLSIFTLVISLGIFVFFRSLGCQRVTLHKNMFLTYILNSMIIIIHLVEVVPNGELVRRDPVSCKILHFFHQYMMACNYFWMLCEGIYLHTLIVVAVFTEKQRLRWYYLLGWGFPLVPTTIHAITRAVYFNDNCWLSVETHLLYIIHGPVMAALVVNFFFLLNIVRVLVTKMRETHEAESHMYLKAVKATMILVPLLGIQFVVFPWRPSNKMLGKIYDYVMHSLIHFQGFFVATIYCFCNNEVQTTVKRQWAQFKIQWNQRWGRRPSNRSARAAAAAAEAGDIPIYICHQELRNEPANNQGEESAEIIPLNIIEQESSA
T1 sequence (O60896 24-148 partner): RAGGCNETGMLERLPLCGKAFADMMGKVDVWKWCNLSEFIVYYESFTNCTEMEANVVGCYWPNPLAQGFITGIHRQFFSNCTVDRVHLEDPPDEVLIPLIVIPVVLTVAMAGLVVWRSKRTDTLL
In short: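 Receptor activation was measured as cAMP accumulation in a monoclonal cell line stably overexpressing hAMY3. Stimulation with graded doses lasted 30 min at room temperature in the presence of 0.5 mM IBMX, with human amylin as positive control.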

[1] = Physical stability of peptide analogues (Thioflavin T fibrillation); assay type: physicochemical; conditions: maximum ThT signal normalized between hAMY maximum and buffer background; 40° C., shaking, four days; pH 7 per table title
In short: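 Samples are stressed at 40 °C for four days, being shaken at 700 rpm before each 10-min fluorescence reading of 4 μM Thioflavin T. Buffers were pH 4 acetate or pH 7 phosphate. Reported values are smoothed maximum ThT signals as a percentage of the hAMY-to-background range.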

| SMILES | EC50 (hAMY3 receptor) [pM] | Max ThT signal (%) [1] [%] |
| --- | --- | --- |
| CC[C@H](C)[C@H](NC(=O)[C@H](CCC(N)=O)NC(=O)[C@H](Cc1c[nH]cn1)NC(=O)[C@H](C)NC(=O)[C@H](CC(C)C)NC(=O)[C@H](CCCNC(=N)N)NC(=O)[C@H](CCC(N)=O)NC(=O)[C@@H](NC(=O)[C@@H](NC(=O)[C@@H]1CSSC[C@H](NC(=O)CN)C(=O)N[C@@H](CCCNC(=N)N)C(=O)N[C@@H](Cc2ccccc2)C(=O)NCC(=O)N[C@@H]([C@@H](C)O)C(=O)N1)[C@@H](C)O)C(C)C)C(=O)N[C@@H](Cc1ccc(O)cc1)C(=O)N[C@@H](CCC(N)=O)C(=O)N[C@@H](Cc1ccccc1)C(=O)N[C@H](C(=O)N[C@@H](CC(=O)O)C(=O)N[C@@H](CCCCN)C(=O)N[C@@H](CC(=O)O)C(=O)N[C@@H](CCCCN)C(=O)N[C@@H](CC(=O)O)C(=O)N[C@@H](CC(N)=O)C(=O)N[C@H](C(=O)N[C@@H](C)C(=O)N1CCC[C@H]1C(=O)N[C@@H](CCCNC(=N)N)C(=O)N[C@H](C(=O)N[C@@H](CC(N)=O)C(=O)N[C@H](C(=O)NCC(=O)N1CCC[C@H]1C(=O)N[C@@H](CC(N)=O)C(=O)NCC(=O)N1C[C@H](O)C[C@H]1C(N)=O)C(C)C)[C@@H](C)O)C(C)C)[C@@H](C)O [compound 90] (H-GCRFGTCTVQRLAHQIYQFTDKDKDNVAPRTNVGPNG[Hyp]-NH2; disulfide 2-7; N-terminus assumed) | 16 | 2.000 |
| CC[C@H](C)[C@H](NC(=O)[C@H](CCC(N)=O)NC(=O)[C@H](Cc1c[nH]cn1)NC(=O)[C@H](C)NC(=O)[C@H](CC(C)C)NC(=O)[C@H](CCCNC(=N)N)NC(=O)[C@H](CCC(N)=O)NC(=O)[C@@H](NC(=O)[C@@H](NC(=O)[C@@H]1CSSC[C@H](NC(=O)CN)C(=O)N[C@@H](CCCNC(=N)N)C(=O)N[C@@H](Cc2ccccc2)C(=O)NCC(=O)N[C@@H]([C@@H](C)O)C(=O)N1)[C@@H](C)O)C(C)C)C(=O)N[C@@H](Cc1ccc(O)cc1)C(=O)N[C@@H](CCC(N)=O)C(=O)N[C@@H](Cc1ccccc1)C(=O)N[C@H](C(=O)N[C@@H](CC(=O)O)C(=O)N[C@@H](CCCCN)C(=O)N[C@@H](CC(=O)O)C(=O)N[C@@H](CCCCN)C(=O)N[C@@H](CC(=O)O)C(=O)N[C@@H](CC(N)=O)C(=O)N[C@H](C(=O)N[C@@H](C)C(=O)N1CCC[C@H]1C(=O)N[C@@H](CCCNC(=N)N)C(=O)N[C@H](C(=O)N[C@@H](CC(N)=O)C(=O)N[C@H](C(=O)N[C@@H](CO)C(=O)N1CCC[C@H]1C(=O)N[C@@H](CCC(N)=O)C(=O)NCC(=O)N[C@@H](Cc1ccc(O)cc1)C(N)=O)C(C)C)[C@@H](C)O)C(C)C)[C@@H](C)O [compound 116] (H-GCRFGTCTVQRLAHQIYQFTDKDKDNVAPRTNVSPQGY-NH2; disulfide 2-7; N-terminus assumed) | 24 | 11.700 |
| CC[C@H](C)[C@H](NC(=O)[C@H](CCC(N)=O)NC(=O)[C@H](Cc1c[nH]cn1)NC(=O)[C@H](C)NC(=O)[C@H](CC(C)C)NC(=O)[C@H](CCCNC(=N)N)NC(=O)[C@H](CCC(N)=O)NC(=O)[C@@H](NC(=O)[C@@H](NC(=O)[C@@H]1CSSC[C@H](NC(=O)CN)C(=O)N[C@@H](CCCNC(=N)N)C(=O)N[C@@H]([C@@H](C)O)C(=O)NCC(=O)N[C@@H]([C@@H](C)O)C(=O)N1)[C@@H](C)O)C(C)C)C(=O)N[C@@H](Cc1ccc(O)cc1)C(=O)N[C@@H](CCC(N)=O)C(=O)N[C@@H](Cc1ccccc1)C(=O)N[C@H](C(=O)N[C@@H](CC(=O)O)C(=O)N[C@@H](CCCCN)C(=O)N[C@@H](CC(=O)O)C(=O)N[C@@H](CCCCN)C(=O)N[C@@H](CC(=O)O)C(=O)N[C@@H](CC(N)=O)C(=O)N[C@H](C(=O)N[C@@H](C)C(=O)N1CCC[C@H]1C(=O)N[C@@H](CCCNC(=N)N)C(=O)N[C@@H](CO)C(=O)N[C@@H](CCCCN)C(=O)N[C@H](C(=O)NCC(=O)N1CCC[C@H]1C(=O)N[C@@H](CC(N)=O)C(=O)NCC(=O)N1C[C@H](O)C[C@H]1C(N)=O)C(C)C)C(C)C)[C@@H](C)O [compound 139] (H-GCRTGTCTVQRLAHQIYQFTDKDKDNVAPRSKVGPNG[Hyp]-NH2; disulfide 2-7; N-terminus assumed) | 35 | 4.800 |

The next lines start with the values.

| EC50 (hAMY3 receptor) [pM] | Max ThT signal (%) [1] [%] | SMILES |
| --- | --- | --- |
| 54 | 4.800 | CC[C@H](C)[C@H](NC(=O)[C@H](CC(N)=O)NC(=O)[C@H](CO)NC(=O)[C@H](CCCNC(=N)N)NC(=O)[C@@H]1CCCN1C(=O)[C@H](C)NC(=O)[C@@H](NC(=O)[C@H](CC(N)=O)NC(=O)[C@H](CC(=O)O)NC(=O)[C@H](CCCCN)NC(=O)[C@H](CC(=O)O)NC(=O)[C@H](CCCCN)NC(=O)[C@H](CC(=O)O)NC(=O)[C@@H](NC(=O)[C@H](Cc1ccccc1)NC(=O)[C@H](CCC(N)=O)NC(=O)[C@H](Cc1ccc(O)cc1)NC(=O)[C@@H](NC(=O)[C@H](CCC(N)=O)NC(=O)[C@H](Cc1c[nH]cn1)NC(=O)[C@H](C)NC(=O)[C@H](CC(C)C)NC(=O)[C@H](CCCNC(=N)N)NC(=O)[C@H](CCC(N)=O)NC(=O)[C@@H](NC(=O)[C@@H](NC(=O)[C@@H]1CSSC[C@H](NC(=O)CN)C(=O)N[C@@H](CCCNC(=N)N)C(=O)N[C@@H]([C@@H](C)O)C(=O)NCC(=O)N[C@@H]([C@@H](C)O)C(=O)N1)[C@@H](C)O)C(C)C)[C@@H](C)CC)[C@@H](C)O)C(C)C)C(=O)NCC(=O)N1CCC[C@H]1C(=O)N[C@@H](CCC(N)=O)C(=O)NCC(=O)N1C[C@H](O)C[C@H]1C(N)=O [compound 165] (H-GCRTGTCTVQRLAHQIYQFTDKDKDNVAPRSNIGPQG[Hyp]-NH2; disulfide 2-7; N-terminus assumed) |
| 130 | 7.800 | CC[C@H](C)[C@H](NC(=O)[C@H](CCC(N)=O)NC(=O)[C@H](Cc1c[nH]cn1)NC(=O)[C@H](C)NC(=O)[C@H](CC(C)C)NC(=O)[C@H](CCCNC(=N)N)NC(=O)[C@H](CCC(N)=O)NC(=O)[C@@H](NC(=O)[C@@H](NC(=O)[C@@H]1CSSC[C@H](NC(=O)[C@@H](N)CCCCN)C(=O)N[C@@H](CCCNC(=N)N)C(=O)N[C@@H](Cc2ccccc2)C(=O)NCC(=O)N[C@@H]([C@@H](C)O)C(=O)N1)[C@@H](C)O)C(C)C)C(=O)N[C@@H](Cc1ccc(O)cc1)C(=O)N[C@@H](CCC(N)=O)C(=O)N[C@@H](Cc1ccccc1)C(=O)N[C@H](C(=O)N[C@@H](CC(=O)O)C(=O)N[C@@H](CCCCN)C(=O)N[C@@H](CC(=O)O)C(=O)N[C@@H](CCCCN)C(=O)N[C@@H](CC(=O)O)C(=O)N[C@@H](CC(N)=O)C(=O)N[C@H](C(=O)N[C@@H](C)C(=O)N1CCC[C@H]1C(=O)N[C@@H](CCCNC(=N)N)C(=O)N[C@@H](CO)C(=O)N[C@@H](CCCCN)C(=O)N[C@H](C(=O)N[C@@H](CO)C(=O)N1CCC[C@H]1C(=O)N[C@@H](CCC(N)=O)C(=O)N[C@H](C(=O)N1C[C@H](O)C[C@H]1C(N)=O)[C@@H](C)O)[C@@H](C)CC)C(C)C)[C@@H](C)O [compound 205] (H-KCRFGTCTVQRLAHQIYQFTDKDKDNVAPRSKISPQT[Hyp]-NH2; disulfide 2-7; N-terminus assumed) |
